In patent US10822312B2, “Substituted quinazoline compounds and methods of use” (ARAXES PHARMA LLC, priority 2016, dated 2020):

Experiments:
[1] = target: T1, KRAS G12D (GDP-loaded, hexahistidine tagged, truncated 1-169) (Homo sapiens, UniProt P01116, G12D); test: SOS-mediated nucleotide exchange assay, KRAS G12D; type: biochemical; conditions: SOS(cat)-mediated Bodipy-GDP exchange
T1 construct: truncated (1-169) KRAS proteins; hexahistidine
Experimental: (§1) GDP-loaded, hexahistidine tagged, truncated (1-169) KRAS proteins (WT or G12D) were used (stored in protein dilution buffer [20 mM HEPES pH=7.5, 150 NaCl, 1 mM MgCl2]). 1 μL of the respective KRAS protein (1.88 μM stock, 0.125 μM final) was mixed with 10 μL of assay buffer (30 mM TRIS pH=7.5, 1.5 mM MgCl2, 0.135 μM Bodipy-GDP [20 mM TRIS pH=7.5, 1.0 mM MgCl2, 0.09 μM final]) and 1 μL of 15× compound stock in 30% DMSO (final DMSO conc. 2%). After 30 min incubation at room temperature, the exchange reaction was initiated by addition of 3 μL SOS(cat) (catalytic domain, 2.5 μM stock in protein dilution buffer, 0.5 μM final). The assay was carried out in black low-volume plates (Corning #4514) and fluorescence was monitored (485 nm excitation and 510 nm emission) for 45 minutes after initiation at 60-s intervals.
(§2) For data analysis, relative fluorescence values for each sample after subtracting the background values (before SOS addition) were plotted in graph pad. Rates were then calculated by fitting the data by non-linear regression (one phase association curve). Typically, 6 dilutions per compound (3-fold series, starting at 60 μM final) were measured. Calculated rates vs compound concentrations were fitted by non-linear regression (log(inhibitor) vs response-Variable slope (four parameters) fit) to determine IC50 values.
(§3) Compound numbers correspond to the numbers and structures provided in Tables 1, 2 and 3 and Examples 1-4.

[2] = target: T2, KRAS WT (GDP-loaded, hexahistidine tagged, truncated 1-169) (Homo sapiens, UniProt P01116); test: SOS-mediated nucleotide exchange assay, KRAS WT; type: biochemical; conditions: SOS(cat)-mediated Bodipy-GDP exchange
T2 construct: truncated (1-169) KRAS proteins; hexahistidine
Experimental: as §1, §2, §3

T1 sequence (P01116 1-169 isoform P01116-2 G12D): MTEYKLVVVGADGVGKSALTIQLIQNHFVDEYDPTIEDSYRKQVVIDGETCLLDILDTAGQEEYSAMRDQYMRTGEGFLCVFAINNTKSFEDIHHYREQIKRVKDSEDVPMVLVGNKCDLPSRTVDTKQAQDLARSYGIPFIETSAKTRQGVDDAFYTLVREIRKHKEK
T2 sequence (P01116 1-169 isoform P01116-2): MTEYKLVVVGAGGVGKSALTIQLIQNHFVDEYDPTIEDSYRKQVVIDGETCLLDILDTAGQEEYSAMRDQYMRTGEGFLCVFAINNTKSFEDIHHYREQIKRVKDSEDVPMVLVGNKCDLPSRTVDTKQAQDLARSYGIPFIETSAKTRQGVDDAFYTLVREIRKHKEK

SMILES	IC50 [1]	IC50 [2]
CN(C)CCCOc1nc(N2CCNCC2)c2cc(Cl)c(-c3cc(O)cc4ccccc34)c(F)c2n1 (single isomer, unassigned) [Compound 22, 4-(6-chloro-2-(3-(dimethylamino)propoxy)-8-fluoro-4-(piperazin-1-yl)quinazolin-7-yl)naphthalen-2-ol]	< 15 µM	> 15 µM
CN(C)CCCOc1nc(N2CCNC(CC#N)C2)c2cc(Cl)c(-c3cc(O)cc4ccccc34)c(F)c2n1 (centres unmarked) [Compound 170]	> 15 µM	< 15 µM
O=S(=O)(F)CCOc1nc(N2CCOCC2)c2cc(Cl)c(-c3cc(O)cc4ccccc34)c(F)c2n1 [Compound 176]	> 15 µM	> 15 µM
CN(CCCCCN=[N+]=[N-])CCCOc1nc(N2CCOCC2)c2cc(Cl)c(-c3cc(O)cc4ccccc34)c(F)c2n1 [Compound 167]	> 15 µM	
CN(CCOc1nc(N2CCOCC2)c2cc(Cl)c(-c3cc(O)cc4ccccc34)c(F)c2n1)C(=O)CCl [Compound 175]	> 15 µM	> 15 µM
CN(C)CCCOc1nc(N2CCN[C@@H](CO)C2)c2cc(Cl)c(-c3cc(O)cc4ccccc34)c(F)c2n1 [Compound 155]	< 15 µM	> 15 µM
CN(C)CCCOc1nc(N2CCNCC2)c2cc(C(F)(F)F)c(-c3cc(O)cc4ccccc34)c(F)c2n1 [Compound 147]		> 15 µM
C[C@@H]1CN(c2nc(OCCCN(C)C)nc3c(F)c(-c4cc(O)cc5ccccc45)c(Cl)cc23)[C@@H](C)CN1 (atropisomer, axis not shown) [Compound 97]	> 15 µM	> 15 µM
CN(C)C1CN(c2nc(N3CCNCC3)c3cc(Cl)c(-c4cc(O)cc5ccccc45)c(F)c3n2)C1 [Compound 334, 4-(6-Chloro-2-(3-(dimethylamino)azetidin-1-yl)-8-fluoro-4-(piperazin-1-yl)quinazolin-7-yl)naphthalen-2-ol]	< 15 µM	
CC(=O)NCCCCCN(C)CCCOc1nc(N2CCNCC2)c2cc(Cl)c(-c3cc(O)cc4ccccc34)c(F)c2n1 [Compound 172]	< 15 µM	> 15 µM
CN(CCCCCN=[N+]=[N-])CCCOc1nc(N2CCNCC2)c2cc(Cl)c(-c3cc(O)cc4ccccc34)c(F)c2n1 [Compound 168]	> 15 µM	
Cc1ccc2[nH]ncc2c1-c1c(Cl)cc2c(N3CCNCC3)nc(OCCCN(C)C)nc2c1F [Compound 108]	> 15 µM	> 15 µM
Cc1cc(N)c2[nH]ncc2c1-c1c(Cl)cc2c(N3CCOCC3)nc(OCCCN(C)C)nc2c1F [Compound 174]	> 15 µM	
CN(C)CCCOc1nc(N2CCNCC2)c2cc(C(F)(F)F)c(-c3cc(O)cc4ccccc34)c(F)c2n1 (atropisomer, axis not shown) [Compound 156]	< 15 µM	
CN(C(=O)CCl)C1CN(c2nc(N3CCNCC3)c3cc(Cl)c(-c4cc(O)cc5ccccc45)c(F)c3n2)C1 [Compound 351]	> 15 µM	> 15 µM
CN(C)C1CN(c2nc(N3CCNCC3)c3cc(Cl)c(-c4cc(O)cc5ccccc45)c(F)c3n2)C1 (atropisomer, axis not shown) [Compound 339]		> 15 µM
CN(C)CCCOc1nc(N2CCNCC2)c2cc(Cl)c(-c3c(O)cccc3F)c(F)c2n1 [Compound 112]	> 15 µM	> 15 µM
Cc1cc(N)c2[nH]ncc2c1-c1c(Cl)cc2c(N3CCNCC3)nc(OCCCN(C)C)nc2c1F [Compound 173]	> 15 µM	> 15 µM
CN(C)CCCOc1nc(N2CCOCC2)c2cc(Cl)c(-c3cc(O)cc4ccccc34)c(F)c2n1 (atropisomer, axis not shown) [Compound 151]	> 15 µM	< 15 µM
CN(C)CCCOc1nc(N2CCOCC2)c2cc(C(F)(F)F)c(-c3cc(O)cc4ccccc34)c(F)c2n1 (atropisomer, axis not shown) [Compound 162]	> 15 µM	< 15 µM
CC(=O)NCCCCCN(C)CCCOc1nc(N2CCOCC2)c2cc(Cl)c(-c3cc(O)cc4ccccc34)c(F)c2n1 [Compound 171]	> 15 µM	> 15 µM
CN(C(=O)CCl)C1CN(c2nc(N3CCOCC3)c3cc(Cl)c(-c4cc(O)cc5ccccc45)c(F)c3n2)C1 [Compound 350]	> 15 µM	> 15 µM

More lines, now with the values ahead:

IC50 [1]	IC50 [2]	SMILES
> 15 µM	< 15 µM	CC(=O)N1CCN(c2nc(OCCCN(C)C)nc3c(F)c(-c4cc(O)cc5ccccc45)c(Cl)cc23)CC1 (single isomer, unassigned) [Compound 18, 1-(4-(6-chloro-2-(3-(dimethylamino)propoxy)-8-fluoro-7-(3-hydroxynaphthalen-1-yl)quinazolin-4-yl)piperazin-1-yl)ethanone]
> 15 µM	> 15 µM	CN(C(=O)CO)C1CN(c2nc(N3CCNCC3)c3cc(Cl)c(-c4cc(O)cc5ccccc45)c(F)c3n2)C1 [Compound 346]
> 15 µM	> 15 µM	CN(C)CCCOc1nc(N2CCN[C@@H](C#N)C2)c2cc(Cl)c(-c3cc(O)cc4ccccc34)c(F)c2n1 [Compound 166]
> 15 µM	> 15 µM	CN(C)CC(O)COc1nc(N2CCNCC2)c2cc(Cl)c(-c3cc(O)cc4ccccc34)c(F)c2n1 (centres unmarked) [Compound 120]
> 15 µM	> 15 µM	C[C@@H]1CN(c2nc(N3CC(N(C)C)C3)nc3c(F)c(-c4cc(O)cc5ccccc45)c(Cl)cc23)[C@@H](C)CN1 (atropisomer, axis not shown) [Compound 330]
> 15 µM	< 15 µM	CC(=O)N1CCN(c2nc(OCCCN(C)C)nc3c(F)c(-c4cc(O)cc5ccccc45)c(C(F)(F)F)cc23)CC1 (atropisomer, axis not shown) [Compound 158]
> 15 µM	> 15 µM	CN(C)CCCOc1nc(N2CCC(C#N)CC2)c2cc(Cl)c(-c3cc(O)cc4ccccc34)c(F)c2n1 [Compound 165]
> 15 µM	> 15 µM	CN(C)CCCOc1nc(N2CCN[C@@H](C(N)=O)C2)c2cc(Cl)c(-c3cc(O)cc4ccccc34)c(F)c2n1 [Compound 164]
< 15 µM	> 15 µM	CN(C(=O)CN)C1CN(c2nc(N3CCNCC3)c3cc(Cl)c(-c4cc(O)cc5ccccc45)c(F)c3n2)C1 [Compound 344]
< 15 µM		CN(C)CCCOc1nc(N2CCNC(CC(N)=O)C2)c2cc(Cl)c(-c3cc(O)cc4ccccc34)c(F)c2n1 (centres unmarked) [Compound 169]
